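Cells were grown in 96-well plates and exposed to each compound for 48 hours at five concentrations; endpoints were interpolated linearly between bracketing concentrations, or set to the highest concentration if not reached. At the GI50, growth is halved.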 Active and inactive are the calls of the source. No stated cut-off is given here; in the data, active = GI50 up to about 1.1 µM and inactive = higher.
What was measured:
Experiment in all cases: NCI tumour cell line growth inhibition, 48 h
[1] = tested on: HOP-62
[2] = tested on: HOP-92
[3] = tested on: HT-29
[4] = tested on: KM12
[5] = tested on: LOX IMVI
[6] = tested on: Malme-3M
[7] = tested on: NCI-H460
[8] = tested on: NCI-H522
[9] = tested on: OVCAR-4
[10] = tested on: OVCAR-5
[11] = tested on: SK-MEL-2
[12] = tested on: SK-OV-3
[13] = tested on: SW-620
[14] = tested on: TK-10
[15] = tested on: UACC-62
[16] = tested on: SR
[17] = tested on: NCI-H226

SMILES	GI50 [1]	GI50 [2]	GI50 [3]	GI50 [4]	GI50 [5]	GI50 [6]	GI50 [7]	GI50 [8]	GI50 [9]	GI50 [10]	GI50 [11]	GI50 [12]	GI50 [13]	GI50 [14]	GI50 [15]	GI50 [16]	GI50 [17]
Cc1cc2c(C)nn(Cc3ccccc3)c2c(C(N)=O)c1C	> 100 µM (inactive)	> 100 µM (inactive)	> 100 µM (inactive)	> 100 µM (inactive)	> 100 µM (inactive)	> 100 µM (inactive)	> 100 µM (inactive)	99.1 µM (inactive)	> 100 µM (inactive)	> 100 µM (inactive)	> 100 µM (inactive)	> 100 µM (inactive)	> 100 µM (inactive)	> 100 µM (inactive)	> 100 µM (inactive)		
C[N+](C)(C)CC(=O)N/N=C(/Cc1nc2c3c(ccc2nc1O)C(=O)c1ccccc1C3=O)C(=O)Nc1ccc(Cl)c(Cl)c1	35.9 µM (inactive)	29.6 µM (inactive)	> 100 µM (inactive)	19.7 µM (inactive)		> 100 µM (inactive)	40.7 µM (inactive)	22.9 µM (inactive)	87.9 µM (inactive)	> 100 µM (inactive)	91.2 µM (inactive)	23.9 µM (inactive)	35.2 µM (inactive)	39.1 µM (inactive)	41.6 µM (inactive)	16 µM (inactive)	
Clc1ncnc2c1ncn2CCCCCCCCCCCCn1cnc2c(Cl)ncnc21	18.6 µM (inactive)	5.24 µM (inactive)	9.82 µM (inactive)	15.5 µM (inactive)	1.43 µM (inactive)		16.4 µM (inactive)	1.48 µM (inactive)	11.1 µM (inactive)	27.7 µM (inactive)	13.4 µM (inactive)	16.4 µM (inactive)	22.4 µM (inactive)	22.1 µM (inactive)	13.9 µM (inactive)	1.06 µM (active)	11.7 µM (inactive)
Cn1c(=O)oc2cc(C3CCC(=O)N3Cc3ccc(Cl)cc3)ccc21 (stereo unspecified)	> 100 µM (inactive)		> 100 µM (inactive)	> 100 µM (inactive)	> 100 µM (inactive)	> 100 µM (inactive)	> 100 µM (inactive)	> 100 µM (inactive)	> 100 µM (inactive)	> 100 µM (inactive)	> 100 µM (inactive)	93.3 µM (inactive)	> 100 µM (inactive)	> 100 µM (inactive)	> 100 µM (inactive)	> 100 µM (inactive)	> 100 µM (inactive)
Cc1nc(-c2nc(C)c(C(=O)/C=C/c3ccc([N+](=O)[O-])cc3)s2)sc1C(=O)/C=C/c1ccc([N+](=O)[O-])cc1	> 100 µM (inactive)	> 100 µM (inactive)	> 100 µM (inactive)	> 100 µM (inactive)	> 100 µM (inactive)	> 100 µM (inactive)	> 100 µM (inactive)			> 100 µM (inactive)	> 100 µM (inactive)	> 100 µM (inactive)	> 100 µM (inactive)	> 100 µM (inactive)	> 100 µM (inactive)		> 100 µM (inactive)
COc1ccc(CC2(Cc3ccc(OC)cc3)CCOC2=O)cc1	20.8 µM (inactive)	40.6 µM (inactive)	> 100 µM (inactive)	> 100 µM (inactive)		> 100 µM (inactive)	> 100 µM (inactive)	17.7 µM (inactive)	> 100 µM (inactive)	> 100 µM (inactive)	94.8 µM (inactive)	> 100 µM (inactive)	> 100 µM (inactive)	> 100 µM (inactive)	> 100 µM (inactive)	> 100 µM (inactive)	> 100 µM (inactive)
C[N+](C)(C)CC1CCC/C1=N\OC(=O)c1ccccc1 (stereo unspecified)	> 100 µM (inactive)		> 100 µM (inactive)	> 100 µM (inactive)	> 100 µM (inactive)	> 100 µM (inactive)		> 100 µM (inactive)	> 100 µM (inactive)		> 100 µM (inactive)	> 100 µM (inactive)	> 100 µM (inactive)		> 100 µM (inactive)	> 100 µM (inactive)	> 100 µM (inactive)
c1ccc([P+](CCC[P+](c2ccccc2)(c2ccccc2)c2ccccc2)(c2ccccc2)c2ccccc2)cc1	49.3 µM (inactive)	20.1 µM (inactive)	34.4 µM (inactive)	24.4 µM (inactive)	23.7 µM (inactive)	70.8 µM (inactive)	20 µM (inactive)	19.5 µM (inactive)	57 µM (inactive)	71.1 µM (inactive)		> 100 µM (inactive)	36.7 µM (inactive)	86.7 µM (inactive)	26.1 µM (inactive)	45 µM (inactive)	23.6 µM (inactive)
O=C(/C=C/c1ccccc1Cl)c1ccc(Cl)cc1Cl	23.2 µM (inactive)	21 µM (inactive)	14.3 µM (inactive)	11.4 µM (inactive)		18.9 µM (inactive)	17.3 µM (inactive)		15.6 µM (inactive)	17.1 µM (inactive)		19.4 µM (inactive)	1.74 µM (inactive)	17.7 µM (inactive)	14.5 µM (inactive)		15.7 µM (inactive)
C/C(=N\NC(=N)N)C(CN1CCCCC1)C(c1ccccc1)c1c(O)c2ccccc2oc1=O (stereo unspecified)	> 100 µM (inactive)	47.8 µM (inactive)	> 100 µM (inactive)		> 100 µM (inactive)	> 100 µM (inactive)		43.6 µM (inactive)	> 100 µM (inactive)	> 100 µM (inactive)	> 100 µM (inactive)	> 100 µM (inactive)	> 100 µM (inactive)	> 100 µM (inactive)	> 100 µM (inactive)	> 100 µM (inactive)	> 100 µM (inactive)
CCOC(=O)NC(=O)c1cn(CCN2CCN(c3ncnc4[nH]cnc34)CC2)c(=O)[nH]c1=O	> 100 µM (inactive)	10.6 µM (inactive)	> 100 µM (inactive)	> 100 µM (inactive)	> 100 µM (inactive)	> 100 µM (inactive)	> 100 µM (inactive)	> 100 µM (inactive)		> 100 µM (inactive)	> 100 µM (inactive)	> 100 µM (inactive)	> 100 µM (inactive)	> 100 µM (inactive)	> 100 µM (inactive)	> 100 µM (inactive)	> 100 µM (inactive)
C#CCNC(=O)ON1C(=O)CCC1=O	> 100 µM (inactive)		> 100 µM (inactive)	> 100 µM (inactive)	> 100 µM (inactive)	> 100 µM (inactive)	> 100 µM (inactive)	> 100 µM (inactive)	> 100 µM (inactive)	> 100 µM (inactive)	> 100 µM (inactive)	> 100 µM (inactive)	> 100 µM (inactive)	> 100 µM (inactive)	> 100 µM (inactive)		
CCO/C(CCn1[nH]c(=O)c(Cl)c(Cl)c1=O)=N\NC(=O)C(=O)NN	> 100 µM (inactive)		> 100 µM (inactive)	> 100 µM (inactive)	> 100 µM (inactive)	> 100 µM (inactive)	> 100 µM (inactive)	> 100 µM (inactive)	> 100 µM (inactive)	> 100 µM (inactive)	> 100 µM (inactive)	> 100 µM (inactive)	> 100 µM (inactive)	> 100 µM (inactive)	> 100 µM (inactive)		> 100 µM (inactive)
CC1=C(C(=O)NCc2ccccc2)C(c2ccc(N(C)C)cc2)C(C(=O)NCc2ccccc2)=C(C)N1	> 100 µM (inactive)	> 100 µM (inactive)	> 100 µM (inactive)	> 100 µM (inactive)		> 100 µM (inactive)	> 100 µM (inactive)	77.8 µM (inactive)	> 100 µM (inactive)	> 100 µM (inactive)	> 100 µM (inactive)	> 100 µM (inactive)	> 100 µM (inactive)	> 100 µM (inactive)	> 100 µM (inactive)		> 100 µM (inactive)
COC(=O)CCCN(C)c1nc(N)n[nH]1	> 100 µM (inactive)		> 100 µM (inactive)	> 100 µM (inactive)	> 100 µM (inactive)		> 100 µM (inactive)		> 100 µM (inactive)	> 100 µM (inactive)		> 100 µM (inactive)	> 100 µM (inactive)	> 100 µM (inactive)	> 100 µM (inactive)	> 100 µM (inactive)	> 100 µM (inactive)
Cc1cc(Cl)ccc1NC(=O)CCCC(=O)C1CCCC1=O (stereo unspecified)			> 100 µM (inactive)	> 100 µM (inactive)	> 100 µM (inactive)	> 100 µM (inactive)	> 100 µM (inactive)	> 100 µM (inactive)	> 100 µM (inactive)	> 100 µM (inactive)	> 100 µM (inactive)	> 100 µM (inactive)	> 100 µM (inactive)	> 100 µM (inactive)	> 100 µM (inactive)		> 100 µM (inactive)
C/C(=C1/N=C(c2cc([N+](=O)[O-])ccc2Cl)N(c2cccc(C)c2)C1=O)c1cc2ccccc2oc1=O	> 100 µM (inactive)	76.2 µM (inactive)	58.5 µM (inactive)	64 µM (inactive)	16.7 µM (inactive)	> 100 µM (inactive)	47.8 µM (inactive)	13.6 µM (inactive)		> 100 µM (inactive)	> 100 µM (inactive)	> 100 µM (inactive)	29.4 µM (inactive)	> 100 µM (inactive)	21.8 µM (inactive)	30.3 µM (inactive)	43.6 µM (inactive)
COc1ccccc1NC(=O)C1=C(C)NC(C)=C(C(=O)Nc2ccccc2OC)C1c1cccc2ccccc12		1.38 µM (inactive)	82.8 µM (inactive)	37.8 µM (inactive)	> 100 µM (inactive)	38.6 µM (inactive)	20.1 µM (inactive)		2.77 µM (inactive)	> 100 µM (inactive)	> 100 µM (inactive)	> 100 µM (inactive)	> 100 µM (inactive)	> 100 µM (inactive)	> 100 µM (inactive)		50.7 µM (inactive)
